In ChEMBL document CHEMBL5036306 (J Med Chem, 2021):
pEC50, pIC50: −log10 of the molar value. The source made the active and inactive calls. The rule behind the calls is not given here.

Key:
[1] = organism: Homo sapiens; assay: Selectivity ratio of IC50 for recombinant HDAC7 (unknown origin) to IC50 for recombinant HDAC6 (unknown origin)
[2] = Neurotoxicity in mouse HT-22 cells assessed as cell survival at 10 uM incubated for 48 hrs by MTT assay; assay type: cell-based; conditions: ht-22, 48 h, 10 µM
[3] = Metal chelating activity compound-Zn2+ complex formation at 10 to 200 uM preincubated for 2 mins followed by di-thizone addition by microplate reader based assay; conditions: dose 10-200 µM
[4] = organism: Homo sapiens; assay: Selectivity ratio of IC50 for recombinant HDAC1 (unknown origin) to IC50 for recombinant HDAC6 (unknown origin)
[5] = organism: Homo sapiens; assay: Selectivity ratio of IC50 for recombinant HDAC4 (unknown origin) to IC50 for recombinant HDAC6 (unknown origin)
[6] = Antioxidant activity assessed as DPPH radical scavenging activity incubated for 30 mins under dark condition by microplate reader based assay; assay type: functional
[7] = target: T1, Histone deacetylase 8 (Homo sapiens, UniProt Q9BY41); assay: Inhibition of recombinant HDAC8 (unknown origin) using Boc-Lys(trifluoroacetyl)-AMC as substrate pre-incubated for 1 hr followed by substrate addition and measured after 2 hrs by fluorescence based assay
T1 sequence (Q9BY41 whole entry): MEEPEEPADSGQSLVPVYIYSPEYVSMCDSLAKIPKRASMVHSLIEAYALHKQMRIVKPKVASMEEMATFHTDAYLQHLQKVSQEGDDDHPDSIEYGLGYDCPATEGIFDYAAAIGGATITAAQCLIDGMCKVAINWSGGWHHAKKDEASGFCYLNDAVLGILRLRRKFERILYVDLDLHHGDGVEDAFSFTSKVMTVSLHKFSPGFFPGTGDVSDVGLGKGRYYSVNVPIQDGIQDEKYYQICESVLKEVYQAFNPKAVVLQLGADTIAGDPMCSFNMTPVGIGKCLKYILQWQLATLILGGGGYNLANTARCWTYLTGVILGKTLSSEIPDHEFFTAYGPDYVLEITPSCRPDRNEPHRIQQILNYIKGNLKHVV

[8] = Metal chelating activity assessed as Fe2+ -ferrozoine complex formation at 10 to 200 uM preincubated for 2 mins followed by ferrozine addition and further incubated for 10 mins by microplate reader based assay; conditions: dose 10-200 µM, time 12.0 min
[9] = organism: Homo sapiens; assay: Selectivity ratio of IC50 for recombinant HDAC2 (unknown origin) to IC50 for recombinant HDAC6 (unknown origin)
[10] = organism: Homo sapiens; assay: Selectivity ratio of IC50 for recombinant HDAC9 (unknown origin) to IC50 for recombinant HDAC6 (unknown origin)
[11] = target: Histone deacetylase 1 (Homo sapiens, UniProt Q13547); assay: Inhibition of recombinant HDAC1 (unknown origin) using Boc-Lys(Ac)-AMC as substrate pre-incubated for 1 hr followed by substrate addition and measured after 2 hrs by fluorescence based assay
[12] = Antioxidant activity of compound assessed as trolox equivalent of AAPH radical scavenging activity at 2 to 4 uM preincubated for 15 mins followed by AAPH addition and measured every 2 mins for 90 mins by ORAC-fluorescein assay; assay type: functional; conditions: dose 2-4 µM, time 105.0 min
[13] = target: Histone deacetylase 9 (Homo sapiens, UniProt Q9UKV0); assay: Inhibition of recombinant HDAC9 (unknown origin) using Boc-Lys(trifluoroacetyl)-AMC as substrate pre-incubated for 1 hr followed by substrate addition and measured after 2 hrs by fluorescence based assay
[14] = target: T2, Histone deacetylase 7 (Homo sapiens, UniProt Q8WUI4); assay: Inhibition of recombinant HDAC7 (unknown origin) using Boc-Lys(trifluoroacetyl)-AMC as substrate pre-incubated for 1 hr followed by substrate addition and measured after 2 hrs by fluorescence based assay
T2 sequence (Q8WUI4 whole entry): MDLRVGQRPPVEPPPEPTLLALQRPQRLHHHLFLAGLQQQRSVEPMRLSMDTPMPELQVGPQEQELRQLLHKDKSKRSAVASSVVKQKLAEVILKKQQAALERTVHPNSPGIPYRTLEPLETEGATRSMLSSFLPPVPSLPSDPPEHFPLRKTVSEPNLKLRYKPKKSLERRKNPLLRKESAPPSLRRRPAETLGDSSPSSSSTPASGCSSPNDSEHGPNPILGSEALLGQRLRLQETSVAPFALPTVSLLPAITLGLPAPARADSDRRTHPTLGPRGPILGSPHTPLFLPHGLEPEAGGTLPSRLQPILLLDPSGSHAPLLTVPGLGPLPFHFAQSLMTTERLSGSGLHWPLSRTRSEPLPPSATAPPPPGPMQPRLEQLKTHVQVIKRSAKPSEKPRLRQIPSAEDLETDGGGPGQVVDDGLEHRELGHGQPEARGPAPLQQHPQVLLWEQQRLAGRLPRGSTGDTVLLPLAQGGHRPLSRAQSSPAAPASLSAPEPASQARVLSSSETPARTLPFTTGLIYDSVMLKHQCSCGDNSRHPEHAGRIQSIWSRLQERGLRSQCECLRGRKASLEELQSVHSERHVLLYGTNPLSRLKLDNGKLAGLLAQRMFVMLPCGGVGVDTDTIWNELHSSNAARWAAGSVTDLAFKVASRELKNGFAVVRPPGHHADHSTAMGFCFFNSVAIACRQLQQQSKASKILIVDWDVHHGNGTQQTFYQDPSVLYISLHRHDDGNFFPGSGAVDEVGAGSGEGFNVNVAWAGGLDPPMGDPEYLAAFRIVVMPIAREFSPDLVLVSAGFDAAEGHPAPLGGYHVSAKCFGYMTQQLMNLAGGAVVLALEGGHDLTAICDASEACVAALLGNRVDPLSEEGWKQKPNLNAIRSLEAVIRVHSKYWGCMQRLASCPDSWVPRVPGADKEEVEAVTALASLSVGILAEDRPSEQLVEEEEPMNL

[15] = target: Histone deacetylase 2 (Homo sapiens, UniProt Q92769); assay: Inhibition of recombinant HDAC2 (unknown origin) using Boc-Lys(Ac)-AMC as substrate pre-incubated for 1 hr followed by substrate addition and measured after 2 hrs by fluorescence based assay
[16] = target: Histone deacetylase 4 (Homo sapiens, UniProt P56524); assay: Inhibition of recombinant HDAC4 (unknown origin) using Boc-Lys(trifluoroacetyl)-AMC as substrate pre-incubated for 1 hr followed by substrate addition and measured after 2 hrs by fluorescence based assay; conditions: for pIC50: read-out: IC50
Sequence of Histone deacetylase 4 (P56524 whole entry): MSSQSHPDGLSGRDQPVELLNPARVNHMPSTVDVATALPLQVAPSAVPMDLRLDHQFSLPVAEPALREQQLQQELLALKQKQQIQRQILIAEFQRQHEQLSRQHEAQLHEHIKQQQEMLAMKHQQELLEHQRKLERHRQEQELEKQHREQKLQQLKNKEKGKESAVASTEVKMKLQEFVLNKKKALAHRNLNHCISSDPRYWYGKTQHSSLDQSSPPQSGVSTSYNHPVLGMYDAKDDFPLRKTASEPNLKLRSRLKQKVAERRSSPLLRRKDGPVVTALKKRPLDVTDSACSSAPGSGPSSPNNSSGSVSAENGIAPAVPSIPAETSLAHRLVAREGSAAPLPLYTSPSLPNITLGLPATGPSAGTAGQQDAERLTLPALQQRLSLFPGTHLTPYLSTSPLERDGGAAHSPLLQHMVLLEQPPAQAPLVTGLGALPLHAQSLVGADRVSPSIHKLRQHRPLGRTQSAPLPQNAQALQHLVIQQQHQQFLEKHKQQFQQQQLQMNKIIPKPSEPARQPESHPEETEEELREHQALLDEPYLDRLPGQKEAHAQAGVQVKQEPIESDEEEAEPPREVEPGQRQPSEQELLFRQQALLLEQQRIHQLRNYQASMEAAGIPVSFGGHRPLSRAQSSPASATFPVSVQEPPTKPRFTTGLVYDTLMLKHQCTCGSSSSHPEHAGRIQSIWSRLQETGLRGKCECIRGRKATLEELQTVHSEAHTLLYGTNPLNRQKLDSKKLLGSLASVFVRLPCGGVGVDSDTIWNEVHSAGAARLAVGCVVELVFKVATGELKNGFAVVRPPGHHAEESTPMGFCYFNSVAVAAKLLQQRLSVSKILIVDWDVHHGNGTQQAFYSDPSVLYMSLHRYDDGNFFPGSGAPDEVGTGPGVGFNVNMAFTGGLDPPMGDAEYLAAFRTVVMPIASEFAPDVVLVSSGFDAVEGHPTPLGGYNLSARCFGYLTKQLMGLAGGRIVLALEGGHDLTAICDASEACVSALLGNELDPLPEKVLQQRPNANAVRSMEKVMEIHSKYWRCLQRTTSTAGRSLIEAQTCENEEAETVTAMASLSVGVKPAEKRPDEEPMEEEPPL

Sequence of Histone deacetylase 2 (Q92769 whole entry): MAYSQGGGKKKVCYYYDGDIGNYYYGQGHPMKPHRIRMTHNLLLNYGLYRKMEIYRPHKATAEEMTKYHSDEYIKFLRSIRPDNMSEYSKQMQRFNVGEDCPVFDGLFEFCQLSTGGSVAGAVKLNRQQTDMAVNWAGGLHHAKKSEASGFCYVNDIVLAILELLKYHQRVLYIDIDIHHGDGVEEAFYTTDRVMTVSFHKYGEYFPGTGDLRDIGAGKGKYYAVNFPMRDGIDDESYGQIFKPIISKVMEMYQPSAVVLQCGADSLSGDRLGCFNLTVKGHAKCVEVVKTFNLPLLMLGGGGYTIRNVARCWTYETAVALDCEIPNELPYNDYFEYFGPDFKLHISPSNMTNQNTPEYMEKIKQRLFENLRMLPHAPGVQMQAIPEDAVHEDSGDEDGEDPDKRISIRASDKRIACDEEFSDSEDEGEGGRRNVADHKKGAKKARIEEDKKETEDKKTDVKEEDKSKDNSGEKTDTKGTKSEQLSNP
Sequence of Histone deacetylase 9 (Q9UKV0 whole entry): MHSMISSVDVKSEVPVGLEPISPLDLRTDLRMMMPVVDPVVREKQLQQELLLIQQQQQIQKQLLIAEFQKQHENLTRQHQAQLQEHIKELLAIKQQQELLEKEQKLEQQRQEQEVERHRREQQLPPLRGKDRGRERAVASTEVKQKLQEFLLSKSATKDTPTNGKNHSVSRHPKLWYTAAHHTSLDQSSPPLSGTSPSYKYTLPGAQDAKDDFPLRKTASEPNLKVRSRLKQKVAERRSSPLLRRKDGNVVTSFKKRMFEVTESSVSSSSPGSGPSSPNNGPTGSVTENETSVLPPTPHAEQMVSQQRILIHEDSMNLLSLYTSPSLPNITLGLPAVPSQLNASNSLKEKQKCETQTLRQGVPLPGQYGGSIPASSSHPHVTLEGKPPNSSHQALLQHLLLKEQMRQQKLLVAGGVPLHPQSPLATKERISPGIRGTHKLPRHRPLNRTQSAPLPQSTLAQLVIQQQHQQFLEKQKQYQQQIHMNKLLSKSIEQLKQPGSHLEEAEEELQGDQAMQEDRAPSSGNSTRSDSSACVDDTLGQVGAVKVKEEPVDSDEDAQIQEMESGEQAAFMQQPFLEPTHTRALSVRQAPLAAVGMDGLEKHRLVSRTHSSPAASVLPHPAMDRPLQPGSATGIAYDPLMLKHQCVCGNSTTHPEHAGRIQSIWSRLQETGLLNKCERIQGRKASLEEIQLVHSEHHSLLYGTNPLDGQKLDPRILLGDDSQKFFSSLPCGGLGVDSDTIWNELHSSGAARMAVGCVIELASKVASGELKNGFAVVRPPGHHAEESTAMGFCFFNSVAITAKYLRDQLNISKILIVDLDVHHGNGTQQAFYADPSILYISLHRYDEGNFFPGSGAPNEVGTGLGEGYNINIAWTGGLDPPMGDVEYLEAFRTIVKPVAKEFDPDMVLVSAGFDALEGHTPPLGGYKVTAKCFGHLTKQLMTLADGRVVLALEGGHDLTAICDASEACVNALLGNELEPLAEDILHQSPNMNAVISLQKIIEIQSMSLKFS
Sequence of Histone deacetylase 1 (Q13547 whole entry): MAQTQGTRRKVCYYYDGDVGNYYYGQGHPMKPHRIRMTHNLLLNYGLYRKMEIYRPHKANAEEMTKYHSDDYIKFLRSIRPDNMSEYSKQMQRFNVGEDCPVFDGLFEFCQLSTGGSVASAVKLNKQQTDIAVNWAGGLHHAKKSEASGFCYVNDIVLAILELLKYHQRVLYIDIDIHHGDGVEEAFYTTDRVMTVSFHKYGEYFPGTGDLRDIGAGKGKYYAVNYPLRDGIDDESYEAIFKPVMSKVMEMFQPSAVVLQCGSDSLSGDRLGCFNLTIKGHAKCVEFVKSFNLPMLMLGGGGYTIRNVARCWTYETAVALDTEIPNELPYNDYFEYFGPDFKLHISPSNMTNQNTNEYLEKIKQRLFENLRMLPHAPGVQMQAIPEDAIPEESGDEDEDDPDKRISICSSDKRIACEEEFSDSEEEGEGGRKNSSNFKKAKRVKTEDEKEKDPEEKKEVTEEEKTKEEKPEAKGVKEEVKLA

| Ratio IC50 [1] | Activity [3] | Ratio IC50 [4] | Ratio IC50 [5] | pEC50 [6] | pIC50 [7] | Activity [8] | Ratio IC50 [9] | Ratio IC50 [10] | pIC50 [11] | pIC50 [13] | pIC50 [14] | pIC50 [15] | pIC50 [16] | IC50 ([16]; read-out: pIC50 (converted)) | SMILES | Activity [2] | ORAC antioxidant capacity (Trolox equivalents) [12] |
| --- | --- | --- | --- | --- | --- | --- | --- | --- | --- | --- | --- | --- | --- | --- | --- | --- | --- |
| > 326 | Active | 25 | > 326 | 4.97 | 5.44 | Active | 93 | > 326 | 6.11 | < 5.00 | < 5.00 | 5.55 | < 5.00 |  | COc1ccc2[nH]cc(CCN(Cc3ccc(C(=O)NO)cc3)C(=O)/C=C/c3ccc(O)c(OC)c3)c2c1 | Non-Toxic | 2.1 |
| 148 | Active | 23 | 306 | 4.25 | 6.08 | Active | 30 | 32 | 6.58 | 6.44 | 5.78 | 6.47 | 5.46 | 3.39 µM | COc1ccc2c(c1)c(CCNC(C)=O)cn2Cc1ccc(C(=O)NO)cc1 | Toxic | 1.6 |
